Where two headings read alike, the source gives them in different places.

One test addresses T1, SF3b complexes (Homo sapiens, UniProt O75533+Q7RTV0).
T1 construct: endogenous in cells; host or cells: Nuclear extracts; A HeLa S3 extract preparation is described for the in vitro splicing assay
In words: Scintillation proximity assay (SPA) with [3H]-labelled pladienolide probe. It counts as binding. The note with it: SF3B1 (WT); geometric mean; read-out: SPA-ATS GMean IC50 (nM) SF3B1 (WT). In outline: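 SF3b complexes captured from nuclear extracts on anti-SF3B1 antibody SPA beads; test compounds pre-incubated 30 min before 2.5 nM [3H]-pladienolide probe added, then 30 min incubation. Bound probe read by scintillation; values from non-linear regression of concentration–response curves.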
In general terms: SPA uses beads or plates that emit light when radiolabelled molecules are held near them.

The subject of test [1] is Ad2 variant pre-mRNAs spliced in HeLa S3 nuclear extracts. In words: In vitro splicing assay (IVS), RT-qPCR of spliced product. The note with it: geometric mean. It counts as biochemical. In short, it runs like this: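 Read-out is one-step TaqMan RT-qPCR of spliced Ad2 mRNA with Ftz as reference, normalized to DMSO and fit by non-linear regression. Reactions held HeLa S3 nuclear extract, 2 ng Ad2-derived pre-mRNA and test compound, with 15 min preincubation. Splicing was started with ATP-containing activation buffer and run 90 min at 30 °C.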
(In general: Real-time PCR tracks product formation cycle by cycle.)

Test [2] relates to NCI-H1568 cells (high MCL1). In words: Cell proliferation and viability, CellTiter-Glo, 72 hours. It counts as cell-based. Conditions: for GI50: geometric mean; for CTGlo-ATS Mean MinResponse % 72 h NCIH1568.1: −100% cidal, 0% static, 100% maximal growth. In short, it runs like this: (§1)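 ATP luminescence (CellTiter-Glo) was measured 72 h after treatment with compound at 10 μM–100 pM (11 points, half-log) in 0.1% DMSO. The Panc line was grown in RPMI-1640 plus insulin and 15% FBS, the other in 10% FBS. Data were normalised to time zero and vehicle controls, where −100% is cidal and 0% static.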

For test [3], the system named is Panc 05.04 cells (SF3b K700E mutant). The description is as above. It counts as cell-based. The note with it: for CTGlo-ATS Mean MinResponse % 72 h PANC0504.1: −100% cidal, 0% static, 100% maximal growth; for GI50: geometric mean. In outline: as §1
The mark [4] stands for this setting: Ad2.1 pre-mRNA substrate, read-out: qPCR-IVS-ATS GMean IC50 (nM) Ad2.1.
Setting [5] is: Ad2.2 pre-mRNA substrate, read-out: qPCR-IVS-ATS GMean IC50 (nM) Ad2.2.
[6] abbreviates: NCI-H1568, read-out: CTGlo-ATS GMean GI50 (nM) 72 h NCIH1568.1, NCIH1568.1 cells, 72 h.
[7] abbreviates: Panc 05.04, read-out: CTGlo-ATS GMean GI50 (nM) 72 h PANC0504.1, PANC0504.1 cells, 72 h.
Setting [8] is: NCI-H1568, 72 h, read-out: CTGlo-ATS GMean GI50 (nM) 72 h NCIH1568.1, NCIH1568.1 cells, 72 h.
Where [9] appears, read: Panc 05.04, 72 h, read-out: CTGlo-ATS GMean GI50 (nM) 72 h PANC0504.1, PANC0504.1 cells, 72 h.

For the compound `C/C(=C\c1cc(F)cc(N2CCN(CC(=O)C3CC3)CC2)c1)[C@H]1OC(=O)C[C@H](O)CC[C@H](C)[C@@H](OC(=O)N2CCN(C)CC2)/C=C/[C@@H]1C` [Compound 84], the IC50 on SF3b complexes stood at 2.75 nM; in test [1] (setting [4]) it was 29.6 nM; in test [1] (setting [5]) it was 22.1 nM. Moreover, the GI50 is 4.3 nM in test [2] (setting [6]) and 5.61 nM in test [3] (setting [7]). Also, the “CTGlo-ATS Mean MinResponse % 72 h NCIH1568.1” value in test [2] (NCIH1568.1 cells, 72 h) is listed as −80.428%. Also, in test [3] (PANC0504.1 cells, 72 h), the “CTGlo-ATS Mean MinResponse % 72 h PANC0504.1” value was −89.010%.
For `C/C(=C\c1cc(F)cc(N2CCN(CC(=O)c3cnccn3)CC2)c1)[C@H]1OC(=O)C[C@H](O)CC[C@H](C)[C@@H](OC(=O)N2CCN(C)CC2)/C=C/[C@@H]1C` [Compound 85], the figures for the IC50 (at SF3b complexes; in test [1] (setting [4]); in test [1] (setting [5])) were 4.74 nM, 22 nM and 27 nM, respectively. Besides, the GI50 stood at 14.1 nM in test [2] (setting [8]) and 8.42 nM in test [3] (setting [9]). The “CTGlo-ATS Mean MinResponse % 72 h NCIH1568.1” value in test [2] (NCIH1568.1 cells, 72 h) is −80.438%. Besides, in test [3] (PANC0504.1 cells, 72 h), the “CTGlo-ATS Mean MinResponse % 72 h PANC0504.1” value is given as −90.914%.
For `C/C(=C\c1cc(F)c2cnn(CC3CC3)c2c1)[C@H]1OC(=O)C[C@H](O)CC[C@H](C)[C@@H](OC(=O)N2CCN(C)CC2)/C=C/[C@@H]1C` [Compound 87, [(2S,3S,4E,6R,7S,10R)-2-[(E)-1-[1-(cyclopropylmethyl)-4-fluoroindazol-6-yl]prop-1-en-2-yl]-10-hydroxy-3,7-dimethyl-12-oxo-1-oxacyclododec-4-en-6-yl] 4-methylpiperazine-1-carboxylate], the IC50 on SF3b complexes was found to be 4.98 nM; in test [1] (setting [4]), 62.7 nM; in test [1] (setting [5]), 27 nM. The figures for the GI50 in test [2] (setting [6]) and in test [3] (setting [7]) were 3.68 nM and 4.19 nM, respectively. For the same compound, in test [2] (NCIH1568.1 cells, 72 h), the “CTGlo-ATS Mean MinResponse % 72 h NCIH1568.1” value is recorded as −85.463%. Besides, in test [3] (PANC0504.1 cells, 72 h), the “CTGlo-ATS Mean MinResponse % 72 h PANC0504.1” value is given as −79.550%.
`C/C(=C\c1ccc2nccn2c1)[C@H]1OC(=O)C[C@H](O)CC[C@H](C)[C@@H](OC(=O)N2CCN(C)CC2)/C=C/[C@@H]1C` [Compound 88, [(2S,3S,4E,6R,7S,10R)-10-hydroxy-2-[(E)-1-imidazo[1,2-a]pyridin-6-ylprop-1-en-2-yl]-3,7-dimethyl-12-oxo-l-oxacyclododec-4-en-6-yl] 4-methylpiperazine-1-carboxylate]: the half-inhibitory concentration (IC50) is 1.02 nM at SF3b complexes, more than 25000 nM in test [1] (setting [4]) and 154 nM in test [1] (setting [5]). The GI50 came to 157 nM in test [2] (setting [8]) and 86.3 nM in test [3] (setting [9]). In addition, the “CTGlo-ATS Mean MinResponse % 72 h NCIH1568.1” value in test [2] (NCIH1568.1 cells, 72 h) is −20.194%. Also, the “CTGlo-ATS Mean MinResponse % 72 h PANC0504.1” value in test [3] (PANC0504.1 cells, 72 h) was −5.029%.
For `C/C(=C\c1ccc(C)c2[nH]ncc12)[C@H]1OC(=O)C[C@H](O)CC[C@H](C)[C@@H](OC(=O)N2CCN(C)CC2)/C=C/[C@@H]1C` [Compound 89, [(2S,3S,4E,6R,7S,10R)-10-hydroxy-3,7-dimethyl-2-[(E)-1-(7-methyl-1H-indazol-4-yl)prop-1-en-2-yl]-12-oxo-1-oxacyclododec-4-en-6-yl] 4-methylpiperazine-1-carboxylate], the IC50 on SF3b complexes worked out at 3.25 nM; in test [1] (setting [4]), 24700 nM; in test [1] (setting [5]), 95.4 nM. For the same compound, the concentration for 50% growth inhibition (GI50) was 219 nM in test [2] (setting [6]) and 109 nM in test [3] (setting [7]). In addition, the “CTGlo-ATS Mean MinResponse % 72 h NCIH1568.1” value in test [2] (NCIH1568.1 cells, 72 h) is recorded as −22.815%. Besides, in test [3] (PANC0504.1 cells, 72 h), the “CTGlo-ATS Mean MinResponse % 72 h PANC0504.1” value was −16.694%.
Regarding `C/C(=C\c1cc(S(=O)(=O)N2CCC(O)CC2)ccc1F)[C@H]1OC(=O)C[C@H](O)CC[C@H](C)[C@@H](OC(=O)N2CCN(C)CC2)/C=C/[C@@H]1C` [Compound 91, [(2S,3S,4E,6R,7S,10R)-2-[(E)-1-[2-fluoro-5-(4-hydroxypiperidin-l-yl)sulfonylphenyl]prop-1-en-2-yl]-10-hydroxy-3,7-dimethyl-12-oxo-1-oxacyclododec-4-en-6-yl] 4-methylpiperazine-1-carboxylate], the IC50 at SF3b complexes worked out at 6.04 nM; in test [1] (setting [4]) it was 14.7 nM; in test [1] (setting [5]) it was 18.9 nM. Besides, the GI50 is 6.86 nM in test [2] (setting [6]) and 4.64 nM in test [3] (setting [7]). For the same compound, in test [2] (NCIH1568.1 cells, 72 h), the “CTGlo-ATS Mean MinResponse % 72 h NCIH1568.1” value is on record as −64.491%. Also, in test [3] (PANC0504.1 cells, 72 h), the “CTGlo-ATS Mean MinResponse % 72 h PANC0504.1” value is on record as −90.776%.
For the compound `C/C(=C\c1cc(F)cc(N2CCOCC2)c1)[C@H]1OC(=O)C[C@H](O)CC[C@H](C)[C@@H](OC(=O)N2CCN(CC(F)(F)F)CC2)/C=C/[C@@H]1C` [Compound 92, [(2S,3S,4E,6R,7S,10R)-2-[(E)-1-(3-fluoro-5-morpholin-4-ylphenyl)prop-1-en-2-yl]-10-hydroxy-3,7-dimethyl-12-oxo-1-oxacyclododec-4-en-6-yl] 4-(2,2,2-trifluoroethyl)piperazine-1-carboxylate], the IC50 at SF3b complexes was 80 nM; in test [1] (setting [4]), more than 25000 nM; in test [1] (setting [5]) it was 664 nM. Moreover, the GI50 in test [2] (setting [6]) turned out to be 401 nM; in test [3] (setting [7]), 433 nM. In test [2] (NCIH1568.1 cells, 72 h), the “CTGlo-ATS Mean MinResponse % 72 h NCIH1568.1” value was −3.918%. The “CTGlo-ATS Mean MinResponse % 72 h PANC0504.1” value in test [3] (PANC0504.1 cells, 72 h) was −37.359%.

As usually defined, the IC50 is the midpoint of a concentration-inhibition curve. One may read the GI50 as the concentration giving 50% growth inhibition.

The values are drawn from patent US11679107B2 (Eisai R&D Management Co., Ltd., priority 2018, dated 2023).
